Measured values: a melting point compilation (Tetko et al.; mined from patent text by program, amines drawn as free bases though some values may be those of a salt)

| SMILES | melting point |
| --- | --- |
| O=C(NC/C=C\COc1cc(CN2CCCCC2)ccn1)NC1CCCC1 | 121 to 124 °C |
| CC(CNC(=O)Nc1ccc([N+](=O)[O-])cc1O)OCc1ccccc1 (centres undefined) | 64.6 to 65.2 °C |
| O=C(CCc1cnoc1-c1ccccc1)Nc1nc(-c2ccc(Cl)cc2)cs1 | 172 to 173 °C |
| COc1ccc(-c2cccc3c2/C(=C/c2ccc[nH]2)C(=O)N3)cc1 | 222 to 223 °C |
| CC(=O)C1=C(C)NC(C)=C(c2nc(CN(C)Cc3ccccc3)no2)C1c1cccc([N+](=O)[O-])c1 (centres undefined) | 138 to 139 °C |
| CCCc1nc2c(c(C)c(C)n3nnnc23)n1CC(C)(C)NC(C)=O | 237 to 240 °C |
| C=CCc1c(-c2cc(=O)c3c(O)cc(OCc4ccccc4)cc3o2)ccc(OC)c1O | 234 °C |
| CCCCOc1ccc(C(=O)Nc2ccc3cc(CN4CCN(C)CC4)cnc3c2C)c(F)c1 | 155 °C |
| O=C(O)CC1=CC2(Cc3ccc(Br)cc3)C(=O)N(c3cc(Cl)cc(Cl)c3)C(=O)N2C1 (centres undefined) | 102 °C |
| COc1ccc2c(=O)c(-c3ccccc3)c(SCc3cccnc3)oc2c1 | 152 °C |
| N#Cc1ccc2cc(CBr)ccc2c1 | 134 to 137 °C |
| COc1cccc2c1C(=O)c1sc(-c3ccccc3)nc1C2=O | > 260 °C |
| C=CCNC(=S)N1CCc2[nH]cnc2C1CC (centres undefined) | 205 °C |
| CC(=O)N(C)c1c(C(=O)c2ccccc2)[nH]c2cc(Cl)ccc12 | 232 to 235 °C |
| Cc1cccc2c1CCCCC2=O | 54 to 55 °C |
| CC1=C(C#N)S(=O)(=O)c2ccc(F)cc2N1 | 261 to 263 °C |
| Cc1ccc(-n2ccc3c(Cl)nn(C)c(=O)c32)c(C)c1 | 119 to 120 °C |
| O=C(N1c2ccccc2C=Cc2ccccc21)C(F)(F)F | 85 to 91 °C |
| CC(C)(C)OC(=O)NC1CCCC1CO (centres undefined) | 107 to 108 °C |
| NC(=O)COc1cccc(NC(=O)c2cc(-c3cccc(F)c3)ccc2F)c1 | 203 to 206 °C |
| C[C@@H](O)[C@H](NC(=O)OC(C)(C)C)C(=O)NOCc1ccccc1 | 87 °C |
| CNc1nc(-c2cccc(-c3cnc4c(C)cccc4c3)c2)c2cc(OC)c(OC)cc2n1 | 188 to 190 °C |
| CC(C)c1ccc([N+](=O)[O-])c(C(C)C)c1NC(=O)CN1CCN(CCCSc2nc3ccccc3o2)CC1 | 156 to 158 °C |

| SMILES | melting point |
| --- | --- |
| COc1cc(OC)c(C2=NC(NC(=O)Nc3ccccc3C)C(=O)N(C)c3ccccc32)c(OC)c1 (centres undefined) | 50 °C |
| CCCC(C)(C)C(=O)Oc1ccc(C(=O)CNC(C)(C)C)cc1O | 128 to 130 °C |
| NC(=O)c1cccc(O)c1F | 196 to 197 °C |
| CCC(=O)NC/C=C1\CCc2ncc3c(c21)CCO3 | 163 to 164 °C |
| CNC(=O)C(Cc1ccc(OC)cc1)NC(=O)C(CC(C)C)C(S)CC(=O)OCc1ccccc1 (centres undefined) | 133 to 135 °C |
| COCc1cc2ccccc2oc1=Nc1ccccc1 | 64 to 65 °C |
| C(#Cc1ccccn1)CCc1nc(-c2ccc3ccccc3c2)no1 | 76 to 78 °C |
| CCCCCCCNC(=O)Nc1ccc(-n2nc(C(F)(F)F)cc2C(F)(F)F)cc1 | 129 to 130 °C |
| S=C(Cc1ccc(Oc2ccc(I)cc2)cc1)N1CCOCC1 | 123 to 127 °C |
| Cc1ccc(-n2nc(C(N)=O)nc2-c2ccccc2)cc1COCCC(C)C | 83 to 85 °C |
| COc1cc(NS(C)(=O)=O)cc(OC)c1-c1ccc(C[C@H](NC(=O)c2c(Cl)cccc2Cl)C(=O)O)cc1 | 154 to 155 °C |
| CCCCc1n[nH]c(C(=O)O)c1Cc1ccc(-c2ccccc2-c2nc(=O)o[nH]2)cc1 | 213 to 214 °C |
| Nc1ncnc2c1ncn2C1CC(=CF)C(O)C1O (centres undefined) | 167 to 169 °C |
| CCN1C(=O)C(C)(C)C(=O)N(C)c2cc(OCCCn3cc(-c4ccc(OC)nc4)c(=O)c4ccccc43)ccc21 | 159 to 161 °C |
| Cc1oc(-c2ccccc2)nc1COc1ccc(COc2ncccc2CC(=O)O)cn1 | 147 to 148 °C |
| O=C(NCCCCCCO)Oc1ccc(Oc2ccccc2)cc1 | 72 to 75 °C |
| O=[N+]([O-])C(=Cc1ccoc1)C1=NCCN1Cc1ccc(Cl)nc1 | 175 to 176 °C |
| CC(=O)Nc1ccc(OC(C)=O)c(C(=O)Nc2cccc3[nH]ccc23)c1 | 263 °C |
| COC(C(=O)O)c1nn(-c2ccccc2)c2c1CCC2 (centres undefined) | 106 to 107 °C |
| O=C(NCc1ccccn1)C1=C(C(=O)Nc2cc(OC3CCCC3)c(Cl)cc2F)CCCC1 | 144 to 148 °C |
| O=C1C(Cl)=C(Nc2ccc(S(=O)(=O)Nc3ccccn3)cc2)C(=O)c2ccccc21 | 273 to 275 °C |
| CC1(C)CC2(NC(=O)NC2=O)c2cc(Cl)ccc2O1 (centres undefined) | 281 to 283 °C |
| CC(C)(C)OC(=O)Nc1ccc(C#Cc2ccc(OC(F)(F)F)cc2)cc1[N+](=O)[O-] | 129 to 131 °C |

| SMILES | melting point |
| --- | --- |
| CCOC(=O)NCC(=O)NNC1=NC(C)C(c2ccccc2)=NN1 (centres undefined) | 144 to 146 °C |
| O=C(NCc1cccs1)c1cc2ccnc(Cl)c2[nH]1 | 179 to 181 °C |
| Nc1nc2ccc(S(=O)(=O)n3c(CCCC(=O)O)cc4nc(Cl)ccc43)cc2o1 | 273 °C |
| CC(=O)c1ccc(N=C(C)c2ccccc2)cc1 | 205 °C |
| CSc1ccc(NC(=N)c2ccc(Cl)cc2)cc1 | 148 to 150 °C |
| NC(=NCCN(Cc1ccc(F)cc1)c1ccccn1)NCCCc1c[nH]cn1 | 60 to 63 °C |
| COc1ccc(C2(O)CCN(C(=O)OCc3ccccc3)CC2)cc1 | 98 °C |
| CCC1=NC2(O)c3cc(-c4ccc(C(F)(F)F)cc4)ccc3CC2S1 (centres undefined) | 145 °C |
| Cc1ccc(-c2c(Cl)nc(-c3ccccc3)nc2Cl)cc1 | 165 to 166 °C |
| NS(=O)(=O)c1ccc(-c2cc(-c3c[nH]nc3-c3ccccn3)ccc2F)cc1 | 128 °C |
| CCOC(=O)C(C)(C(=O)OCC)C(=O)c1cc([N+](=O)[O-])cc(Br)c1Cl | 75 to 76.5 °C |
| Cc1ccccc1-c1cc(-n2cncn2)ncc1C(=O)N(C)Cc1cc(C(F)(F)F)cc(C(F)(F)F)c1 | 91 to 93 °C |
| CC1(C)CCC(C)(C)c2cc3cc(-c4ccc(C(=O)O)c(Cl)c4)ccc3cc21 | 213 to 215 °C |
| O=C(N[C@@H]1C(=O)N[C@@H]1C=Cc1ccccc1)OCc1ccccc1 | 201 to 204 °C |
| CS(=O)(=O)C1Cc2cc(Cl)ccc2C1=O (centres undefined) | 197 °C |
| O=C1NC(=S)SC1=Cc1ccc2c(c1)N(OCc1ccc(Cl)c(Cl)c1)C(=O)CO2 | > 300 °C |
| Cc1ccc(C2=Cc3cc(C(=O)N[C@H]4CC[C@H](CN(C)C5CCOCC5)CC4)ccc3OC2)cc1 | 205 to 207 °C |
| COC(=O)c1cn(Cc2ccc3cc(OCc4ccccc4)ccc3c2)cc1-c1ccccc1 | 109 to 110 °C |
| CCOC(=O)C1=C(NC(=O)Nc2cc(C(=O)OC(C)C)c(Cl)cc2Cl)CCC1 | 140 to 142 °C |
| COC(=O)c1ccc(-c2nnc(-c3cccc(NC(=O)Nc4ccc(C(C)C)cc4)c3)o2)cc1 | > 270 °C |
| Cc1cc(C(N)=O)ccc1O[C@@H]1CCNC[C@H]1O (relative stereo) | 210 to 212 °C |
| O=c1oc(=O)c2ccc3c4ccccc4sc4ccc1c2c43 | 315 to 317 °C |
| CCOC(=O)C(=C(c1ccc(F)cc1)c1ccc(F)cc1)n1nnnc1-c1ccccc1 | 149 to 150 °C |
